Measurements: paper PMC6268972, “Antiproliferative, Antimicrobial and Apoptosis Inducing Effects of Compounds Isolated from Inula viscosa” (Molecules, 2012)
Converted amounts (≈) assume the structure as drawn. “Also recorded” adds a separate entry of the source.

Legend:
[1] = tested on: MCF-7 cells; assay: TUNEL colorimetric apoptosis assay; assay type: cell-based, human; conditions: 15 µg/mL, 28 h, compared with untreated cells
Protocol: Apoptosis was detected using terminal deoxynucleotidyl transferase (TdT) mediated-16-deoxyuridine triphosphate (dUTP) Nick-End Labelling (TUNEL) system (Promega, Madison, WI, USA). MCF-7 cells cultured in 24 well plates were treated with 15 µg/mL of either 3-O-methylquercetin or 3,3′-di-O-methylquercetin for 28 h. The assay was conducted according to the manufacturer's instructions. Briefly, treated cells were fixed using 10% formalin followed by washing with phosphate buffer saline (PBS). Cells were then permeabilized using 0.2% triton X-100. Biotinylated dUTP in rTdT reaction mixture was added to label the fragmented DNA at 37 °C for one hour, followed by blocking endogenous peroxidases using 0.3% hydrogen peroxide. Streptavidin HRP (1:500 in PBS) was added and incubated at room temperature for 30 min. Finally, hydrogen peroxide and chromagen diaminobenzidine were used to visualize nuclei with fragmented DNAs under the light microscope (Novex, Arnhem, Holland). Cells treated with 40 nM vincristine sulfate were used as a positive control while untreated cells were used as a negative control.

[2] = tested on: Methicillin resistant Staphylococcus aureus (MRSA); assay: Microtiter plate dilution MIC, MRSA; assay type: cell-based; conditions: Staphylococcus aureus, MRSA; clinical isolate, 24 h, 100% inhibition; read-out: Minimum inhibitory concentration (MIC) MRSA
Protocol: The microbial strains used in this study were Escherichia coli (ATCC 10798), Salmonella typhimurium (ATCC14028), Methicillin resistant Staphylococcus aureus (MRSA, Clinical isolate), Bacillus cereus (Toxigenic strain TS), and Candida albicans (ATCC 90028). Bacterial strains were stocked onto nutrient agar slant at 4 °C, and Candida albicans was stocked onto malt agar slant at 4 °C.
The microtiter plate dilution method was used to determine the MIC (minimum inhibitory concentration) of compounds under study. Sterile 96-well microplates (Nunc) were used for the assay. Stock compounds were dissolved in DMSO so that the final concentrations in micro wells were less than 1% DMSO and solvent controls were run at these concentrations. Positive controls of penicillin G and tetracycline (Oxoid, Hampshire, UK) were prepared at the following concentrations 2, 4, 8, 16, 31, 62.5, 125, and 250 μg/mL. 1% DMSO was used as a solvent control. Compounds were diluted to twice the desired initial test concentration (250 µg/mL) with Muller Hinton broth (MHB) (Oxoid). All wells, except the first were filled with MHB (50 μL). Compounds (100 μL) were added to the first well and serial two-fold dilutions were made down to the desired minimum concentration (2 μg/mL). An over-night culture of bacteria suspended in MHB was adjusted to turbidity equal to 0.5 McFarland standard. The plates were inoculated with bacterial suspension (50 μL/well) and incubated at 37 °C for 24 h. Then the turbidity was measured using micro-plate reader (Biotek) at 620 nm wavelength. The same procedure was used to determine the antifungal activity of compounds against Candida albicans. The medium used was malt extract broth. The yeast cells were suspended in 0.85% saline, with an optical density equivalent to 0.5 McFarland standard, and diluted 1:100 in malt extract broth to obtain the working concentration. After 24 h incubation with each compound, the turbidity was measured at 530 nm wavelength using a spectrophotometer (Biotek). Percentage inhibition for tested microorganisms was calculated using the following formula:
MIC was determined as the lowest concentration of the compound that causes complete inhibition (100%) of each microorganism.

[3] = tested on: MCF-7 cells; assay: Scanning electron microscopy of MCF-7 cells; assay type: cell-based, human; conditions: 15 µg/mL compound (vincristin sulfate 40 nM), 48 h
Protocol: (§1) MCF-7 cells were cultured in complete DMEM containing either 15 µg/mL of 3-O-methylquercetin or 3,3′-di-O-methylquercetin and incubated for 48 h in humidified CO2 incubator. Negative control cells were incubated with complete DMEM and positive control cells received complete DMEM containing 40 nM vincristin sulfate. Treated cells were fixed with 3% glutaraldehyde for 1.5 h followed by osmium tetroxide (2% in PBS) for 1 h. After fixation, cells were washed in PBS and sequentially dehydrated using 30%, 70%, and 100% ethanol. Fixed cells were attached to a metal stubs and sputter coated with platinum by using Emitech K550X coating unit (Qourum Technology, West Sussex, UK). The coated specimens were viewed using Inspect F50/FEG scanning electron microscope (FEI, Eindhoven, The Netherlands) at accelerating voltage of 2–5 kV. Bacillus cereus cells treated with 3,3′-di-O-methylquercetin for 24 h were collected by centrifugation and washed with sodium phosphate buffer. Following that, the samples were fixed in 2.5% glutaraldehyde in 0.1 M phosphate buffer, pH 7.3, at 4 °C overnight, and postfixed in 1% osmium tetroxide in the phosphate buffer for 1 h at room temperature. Bacterial cells were dehydrated with sequential ethanol concentrations (30–100%) and coated for the observations under scanning electron microscope.

[4] = tested on: Bacillus cereus; assay: Scanning electron microscopy of Bacillus cereus cells; assay type: cell-based; conditions: 62.5 µg/mL, 24 h
Protocol: as §1

MIC [2]: 250 µg/mL (≈ 757 µM)
Structure (SMILES): COc1cc(-c2oc3cc(O)cc(O)c3c(=O)c2OC)ccc1O [3,3′-di-O-Methylquercetin]
Apoptosis induction (DNA fragmentation, TUNEL) [1]: increase in the number of apoptotic cells with fragmented DNA
Cytomorphological alterations (scanning electron microscopy) [3]: cell shrinkage, membrane blebbing, loss of contact with neighboring cells, and formation of apoptotic bodies
Morphological changes of bacterial cells (scanning electron microscopy) [4]: induced damage in bacterial cell walls and cytoplasmic membranes
Morphological changes of bacterial cells (scanning electron microscopy) ([4]; listed as 3,3′-di-O-methylquercetin): Damages on both the bacterial cell wall and the cytoplasmic membrane; also recorded: Leakage of intracellular constituents
